Results on 17 substances are retold here after article PMC11345766, “Computational Design of Pore-Forming Peptides with Potent Antimicrobial and Anticancer Activities” (Journal of Medicinal Chemistry, 2024).

Where two headings read alike, the source gives them in different places. Ends that are not written are not given here.

One data set has as its system S. carnosus (CCM 4838T). Put plainly: microbe, parasite or virus in culture. The format is cell-based, Staphylococcus carnosus. Conditions: CCM 4838, 24 h; read-out: Antimicrobial activity (MIC) S. carnosus (CCM 4838T). From the text:
(§1) To test antimicrobial activity, all peptides were initially screened, in a broth microdilution assay, against Gram-negative Escherichia coli (TOP10) and Gram-positive Staphylococcus carnosus (CCM 4838T) Biosafety Level 1 (BSL-1) bacteria (Table 2). […] Four other mutants (LP3, LP26, LP36, and LP39) had higher activity than LP1 against E. coli, and two mutants (LP23 and LP32) had higher activity than LP1 against S. carnosus. Six mutants (LP29, LP30, LP31, LP33, LP40, and LP43) were not active against one or both bacteria, even at the highest concentration tested (50 μM).
(§2) Antimicrobial activity against E. coli TOP10 and S. carnosus CCM 4838T was tested using the broth microdilution assay. Bacteria were cultured in MHA Petri dish for 24 h, subcultured in an MHB test tube for 6 h at 37 °C, and diluted to 10^6 CFU/mL (OD600). […] Dilution series was prepared for concentrations 50 to 0.1 μM in a flat-bottom 96-well plate, inoculated with bacteria, and incubated for 24 h at 37 °C. Growth control wells were free from test compounds, and sterility control wells were free from bacteria. Bacterial MIC was determined as the lowest concentration of test compounds that inhibited visible growth of bacteria (i.e., no visible turbidity).

The nature of data set [1]: Calcein dye leakage assay from LUVs. The format is biochemical. As to conditions: for Calcein leakage (%) from LUVs at P:L 1:100 (mol/mol): pH 7.4; for Calcein leakage: even at a higher P:L ratio of 1:10. From the text: To verify the pore-forming mechanism of action of the designed AMPs, we performed a calcein leakage assay. […] These lipid vesicles were used as simple mimics of bacterial membranes.[58] At the lowest tested peptide-to-lipid (P:L) ratio of 1:100 (mol/mol), three mutants (LP18, LP26, and LP40) caused >90% leakage, which was higher than the leakage caused by LP1 (87%). […] At the same concentration, LP23 caused leakage equivalent to that caused by LP1. Other mutants had lower leakage activity. At a higher P:L ratio of 1:50, all the abovementioned mutants caused 100% leakage, equivalent to that caused by LP1.
Pore-forming activity was tested using a dye leakage assay measuring the leakage of self-quenching fluorescent dye calcein from POPC:POPG (1:1 mol/mol) LUVs. DiD was mixed with lipids (1:500 mol/mol), and lipid film was created by evaporating chloroform, followed by 4 h of desiccation. Dried lipid film was dissolved in calcein buffer (35 mM calcein, 25 mM NaH2PO4·H2O and Na2HPO4·7H2O (3:7 mol/mol), 20 mM NaCl, and 1 mM EDTA). After 10 freeze–thaw cycles, the sample was extruded 50 times through a 100 nm pore size polycarbonate membrane filter. Free calcein in solution was removed using a HiTrap Desalting column. The concentrations of LUVs and peptides were adjusted to 0.02 and 0.1 mM, respectively, in PBS (25 mM NaH2PO4·H2O and Na2HPO4·7H2O (3:7 mol/mol), 100 mM NaCl, and 1 mM EDTA). The investigated P/L ratio was from 1:100 to 1:10 (mol/mol). Fluorescence intensity was measured using a HORIBA Scientific Jobin Yvon FluoroLog-3 Modular Spectrofluorometer (USA). Excitation and emission wavelengths were set to 495 and 520 nm, respectively. Triton X-100 10% caused 100% leakage used for normalization.

The subject of a further data set is E. coli (TOP10). Kind of data set: Broth microdilution antimicrobial susceptibility assay. The format is cell-based, Escherichia coli.
Excerpt: as §1, §2

Data set [2] relates to human red blood cells (HRBCs). Conditions: read-out: Hemolysis toxicity (IC50); 1 h incubation. The protocol: To investigate the toxicity for normal human cells, all peptides were first screened against human red blood cells (HRBCs) using a hemolysis assay (Table 2 and Figure S4).
Hemolysis toxicity was tested against HRBCs. Blood samples, collected from the university hospital, were centrifuged twice at 700 × g and once at 1000 × g for 8 min at 4 °C to obtain erythrocyte pellets. Supernatants were always discarded, and pellets were resuspended in PBS (the same as the antimicrobial susceptibility assay). The final RBC suspension was 0.5% (v/v). Dilution series was prepared for concentrations 50 to 0.1 μM in a V-bottom 96-well plate, followed by the addition of RBC suspension. […] After 1 h of incubation at 37 °C, the well plate was centrifuged at 1000 × g for 10 min at 4 °C. The supernatant, collected in a flat-bottom well plate, was measured for OD415 using Tecan Microplate Reader Infinite F500.

How the values of data set [3] were obtained:
(§3) Cytotoxicity against human immortalized keratinocytes HaCaT, human alveolar basal epithelial A549 (derived from adenocarcinoma), and murine macrophages RAW 264.7 was tested using MTT [3-(4,5-dimethylthiazol-2-yl)-2,5-diphenyltetrazolium bromide] assay. Cells were cultured in Dulbecco’s modified Eagle’s medium (DMEM) containing 4 mM glutamine for HaCaT, or 2 mM glutamine for A549 and RAW 264.7 cells, supplemented with 10% heat-inactivated fetal bovine serum (FBS) and antibiotics (0.1 mg/mL penicillin and streptomycin). Nonessential amino acids (NEAA) and sodium pyruvate (1 mM) were added for macrophages. Cell lines were grown in 25 and 75 cm^2 flasks at 37 °C in a humidified atmosphere with 5% CO2. Cells were suspended in DMEM, containing glutamine, NEAA, and sodium pyruvate (as described above), supplemented with 2% FBS, plated in 96-well plates at 4 × 10^4 cells/well, and incubated at 37 °C in a 5% CO2 atmosphere. After overnight incubation, the medium was replaced with fresh DMEM supplemented with peptides at different concentrations: 2, 4, 8, 16, 32, 64, and 128 μM. Negative controls were cells without peptides. After 24 h of peptide treatment at 37 °C in a 5% CO2 atmosphere, medium was replaced with Hank’s buffer (136 mM NaCl, 0.34 mM Na2HPO4, 0.44 mM KH2PO4, 5.4 mM KCl, 4.1 mM NaHCO3, supplemented with 5.5 mM D-glucose) containing 0.5 mg/mL MTT. Mitochondrial dehydrogenases converted soluble yellow dye MTT to insoluble purple formazan. After 4 h of incubation, acidified isopropanol was added to dissolve formazan crystals and measured for OD570 using Tecan microplate reader Infinite M200 (Salzburg, Austria).

The procedure of data set [4]:
as §3
This is another data set of the same source.

“KKKKLKKILKKLWQWINQLDNQLQDIKQNK-NH2 [LP3]”: the MIC was 0.8 µM with S. carnosus (CCM 4838T) and 0.4 µM against E. coli (TOP10) (24 h, MHB). The “Calcein leakage (%) from LUVs at P:L 1:100 (mol/mol)” value in data set [1] is reported as 29.6 ± 1.2%.
In general, IC50 refers to the concentration that gives 50% inhibition. Turning to “KNQNLDDILNQLFQFINQLKNQLQKIKKKK-NH2 [LP43]”, the MIC with S. carnosus (CCM 4838T) is listed as 0.8 µM; in the data set with E. coli (TOP10) (TOP10, 24 h), above 50 µM. Further, the “Calcein leakage (%) from LUVs at P:L 1:100 (mol/mol)” value in data set [1] was 64.2 ± 4.6%. Moreover, the IC50 in data set [2] was above 50 µM.
As to “KKKKLKKILKKLFNFINNLDNNLNDIKNNK-NH2 [LP37]”, the MIC is reported as 0.4 µM in the data set with S. carnosus (CCM 4838T) and 0.2 µM in the data set with E. coli (TOP10) (TOP10, 24 h). In addition, the “Calcein leakage (%) from LUVs at P:L 1:100 (mol/mol)” value in data set [1] is listed as 70.3 ± 1.7%. Also, in data set [2], the IC50 is above 50 µM.
For “KKKKLKKILKKLFQFINQLENQLQEIKQNK-NH2 [LP8]”, the MIC in the data set with S. carnosus (CCM 4838T) is recorded as 0.8 µM; against E. coli (TOP10) (24 h, MHB), 0.8 µM. The “Calcein leakage (%) from LUVs at P:L 1:100 (mol/mol)” value in data set [1] is 29.2 ± 4.9%.
“Ac-KKKKLKKILKKLFQFINQLDNQLQDIKQNK-NH2 [LP23]”: the MIC in the data set on S. carnosus (CCM 4838T) is 0.4 µM; with E. coli (TOP10) (TOP10, 24 h), 6.3 µM. Moreover, the “Calcein leakage (%) from LUVs at P:L 1:100 (mol/mol)” value in data set [1] is 83.3 ± 5.4%. The half-inhibitory concentration (IC50) in data set [2] is above 50 µM.
In the case of “KKKKMKKMMKKMFQFMNQMDNQMQDMKQNK-NH2 [LP30]”, the MIC was 12.5 µM in the data set with S. carnosus (CCM 4838T) and above 50 µM against E. coli (TOP10) (TOP10, 24 h). For the same substance, in data set [1], the “Calcein leakage (%) from LUVs at P:L 1:100 (mol/mol)” value was 21.9 ± 2.5%. In addition, the IC50 in data set [2] is above 50 µM.
On to “KKKKLKKILKKLFSFISSLDSSLSDIKSSK-NH2 [LP36]”, for which the MIC with S. carnosus (CCM 4838T) is recorded as 0.8 µM; in the data set on E. coli (TOP10) (TOP10, 24 h), 0.4 µM. In addition, the “Calcein leakage (%) from LUVs at P:L 1:100 (mol/mol)” value in data set [1] is on record as 71.5 ± 7.4%. The 50% inhibitory concentration (IC50) in data set [2] was above 50 µM.
“H-KKKKLKKILKKLFQFINQLDNQLQDIKQNK-OH [LP22]”: the MIC in the data set on S. carnosus (CCM 4838T) amounted to 0.4 µM; with E. coli (TOP10) (24 h, MHB), 0.2 µM. Further, the “Calcein leakage (%) from LUVs at P:L 1:100 (mol/mol)” value in data set [1] is 68.0 ± 1.7%.
The corresponding values for “KKKKLKKILKKLFQFIDQLINDLQNIKKKK-NH2 [LP20]” are 1.6 µM, 1.6 µM and 38.6 ± 3.5%.
As to “KKKKAKKAAKKAFQFANQADNQAQDAKQNK-NH2 [LP29]”, the MIC in the data set with S. carnosus (CCM 4838T) was above 50 µM. Also, in data set [1], the “Calcein leakage (%) from LUVs at P:L 1:100 (mol/mol)” value is recorded as 0% and the Calcein leakage result is given as “did not cause any leakage”. In addition, the IC50 in data set [2] is above 50 µM. In the data set with E. coli (TOP10) (TOP10, 24 h), this substance displayed an MIC above 50 µM.
For “RRRRLKKILKKLFQFINQLDNQLQDIRQNR-NH2 [LP39]”, the MIC came out at 0.8 µM in the data set with S. carnosus (CCM 4838T) and 0.4 µM in the data set on E. coli (TOP10) (24 h, MHB). Moreover, the “Calcein leakage (%) from LUVs at P:L 1:100 (mol/mol)” value in data set [1] is given as 65.5 ± 4.2%.
In the case of “KKKKLKKILKKLFTFITTLDTTLTDIKTTK-NH2 [LP34]”, the MIC in the data set on S. carnosus (CCM 4838T) is reported as 0.8 µM; against E. coli (TOP10) (TOP10, 24 h) it was 0.8 µM. The “Calcein leakage (%) from LUVs at P:L 1:100 (mol/mol)” value in data set [1] is given as 79.3 ± 2.4%. The 50% inhibitory concentration (IC50) in data set [2] is above 50 µM.
Turning to “KKKKLRRILRRLFQFINQLDNQLQDIKQNK-NH2 [LP38]”, the MIC in the data set with S. carnosus (CCM 4838T) is 0.4 µM; in the data set with E. coli (TOP10) (24 h, MHB) it was 0.2 µM. For the same substance, the “Calcein leakage (%) from LUVs at P:L 1:100 (mol/mol)” value in data set [1] is on record as 76.0 ± 3.3%.
As to “KKKKLKKILKKLIQLINQLDNQLQDIKQNK-NH2 [LP2]”, the MIC with S. carnosus (CCM 4838T) is given as 1.6 µM; against E. coli (TOP10) (TOP10, 24 h), 6.3 µM. In addition, the “Calcein leakage (%) from LUVs at P:L 1:100 (mol/mol)” value in data set [1] is on record as 24.2 ± 2.6%. Further, the IC50 in data set [2] was above 50 µM.
Take “KKKKVKKVVKKVFQFVNQVDNQVQDVKQNK-NH2 [LP31]”: the MIC in the data set on S. carnosus (CCM 4838T) is above 50 µM; with E. coli (TOP10) (TOP10, 24 h), above 50 µM. The “Calcein leakage (%) from LUVs at P:L 1:100 (mol/mol)” value in data set [1] was 0%. Further, the Calcein leakage in data set [1] is at most 20%. For the same substance, the IC50 in data set [2] was above 50 µM; in data set [3], above 128 µM.
Regarding “H-KKKKLKKILKKLFQFINQLDNQLQDFKQNK-OH [LP26]”, the MIC is 0.8 µM in the data set on S. carnosus (CCM 4838T) and 0.4 µM against E. coli (TOP10) (24 h, MHB). Further, the “Calcein leakage (%) from LUVs at P:L 1:100 (mol/mol)” value in data set [1] is 91.6 ± 2.8%.
Regarding “KKKKLKKLLKKLFQFLNQLDNQLQDLKQNK-NH2 [LP32]”, the MIC with S. carnosus (CCM 4838T) amounted to 0.4 µM; in the data set on E. coli (TOP10) (TOP10, 24 h) it was 1.6 µM. Further, the “Calcein leakage (%) from LUVs at P:L 1:100 (mol/mol)” value in data set [1] is given as 56.3 ± 3.3%. Also, the IC50 was above 50 µM in data set [2] and below 2 µM in data set [4].
